{"source": "patent US20100304418A1", "about": "“Compositions and Methods for Monitoring Flow Through Fluid Conducting and Containment Systems” (priority 2007, published 2010)", "key": {"[1]": {"target": "T1, galactose oxidase (Gibberella zeae, UniProt P0CS93)", "T1 sequence (P0CS93 42-680 limits assumed)": "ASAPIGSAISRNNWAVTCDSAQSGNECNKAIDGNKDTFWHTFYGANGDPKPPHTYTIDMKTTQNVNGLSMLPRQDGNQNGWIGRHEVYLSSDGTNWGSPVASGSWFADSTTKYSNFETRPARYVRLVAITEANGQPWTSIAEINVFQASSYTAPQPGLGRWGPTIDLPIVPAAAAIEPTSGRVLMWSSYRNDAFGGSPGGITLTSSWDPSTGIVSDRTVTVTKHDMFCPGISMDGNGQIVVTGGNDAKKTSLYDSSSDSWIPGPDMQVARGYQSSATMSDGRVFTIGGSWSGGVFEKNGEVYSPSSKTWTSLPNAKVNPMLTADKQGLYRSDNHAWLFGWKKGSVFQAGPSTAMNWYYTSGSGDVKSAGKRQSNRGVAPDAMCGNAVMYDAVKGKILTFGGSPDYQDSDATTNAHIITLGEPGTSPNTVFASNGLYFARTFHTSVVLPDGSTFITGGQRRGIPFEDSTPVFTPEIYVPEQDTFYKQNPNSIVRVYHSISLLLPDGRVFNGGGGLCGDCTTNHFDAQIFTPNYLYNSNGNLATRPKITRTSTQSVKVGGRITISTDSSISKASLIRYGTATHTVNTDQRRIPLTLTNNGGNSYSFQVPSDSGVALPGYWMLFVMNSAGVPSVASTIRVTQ"}, "[2]": {"test": "Thermal stability of galactose and derivatives", "conditions": "20 h", "method": "The thermal stability of both galactose and octy-galactose was investigated. Galactose and octyl-galacotse solutions (50 ppm, 30 mL) were prepared in both deionised water and formation water. These solutions were divided and the pH of one water sample and one formation water sample was adjusted to 2 with HCl. 4.5 mL of each solution was placed in a duran bottle with Teflon tape wrapped around the threads to prevent evaporation. The eight samples were heated at 100 or 120° C. for 20 h. The remaining solutions were kept at 4° C. inbetween experiments. Each of the samples was diluted 10-fold before analysis."}, "[3]": {"target": "T1, galactose oxidase", "format": "biochemical"}, "[4]": {"target": "T2, xanthine oxidase (Bos taurus, UniProt P80457)", "T2 construct": "purchased", "T2 sequence (P80457 whole entry)": "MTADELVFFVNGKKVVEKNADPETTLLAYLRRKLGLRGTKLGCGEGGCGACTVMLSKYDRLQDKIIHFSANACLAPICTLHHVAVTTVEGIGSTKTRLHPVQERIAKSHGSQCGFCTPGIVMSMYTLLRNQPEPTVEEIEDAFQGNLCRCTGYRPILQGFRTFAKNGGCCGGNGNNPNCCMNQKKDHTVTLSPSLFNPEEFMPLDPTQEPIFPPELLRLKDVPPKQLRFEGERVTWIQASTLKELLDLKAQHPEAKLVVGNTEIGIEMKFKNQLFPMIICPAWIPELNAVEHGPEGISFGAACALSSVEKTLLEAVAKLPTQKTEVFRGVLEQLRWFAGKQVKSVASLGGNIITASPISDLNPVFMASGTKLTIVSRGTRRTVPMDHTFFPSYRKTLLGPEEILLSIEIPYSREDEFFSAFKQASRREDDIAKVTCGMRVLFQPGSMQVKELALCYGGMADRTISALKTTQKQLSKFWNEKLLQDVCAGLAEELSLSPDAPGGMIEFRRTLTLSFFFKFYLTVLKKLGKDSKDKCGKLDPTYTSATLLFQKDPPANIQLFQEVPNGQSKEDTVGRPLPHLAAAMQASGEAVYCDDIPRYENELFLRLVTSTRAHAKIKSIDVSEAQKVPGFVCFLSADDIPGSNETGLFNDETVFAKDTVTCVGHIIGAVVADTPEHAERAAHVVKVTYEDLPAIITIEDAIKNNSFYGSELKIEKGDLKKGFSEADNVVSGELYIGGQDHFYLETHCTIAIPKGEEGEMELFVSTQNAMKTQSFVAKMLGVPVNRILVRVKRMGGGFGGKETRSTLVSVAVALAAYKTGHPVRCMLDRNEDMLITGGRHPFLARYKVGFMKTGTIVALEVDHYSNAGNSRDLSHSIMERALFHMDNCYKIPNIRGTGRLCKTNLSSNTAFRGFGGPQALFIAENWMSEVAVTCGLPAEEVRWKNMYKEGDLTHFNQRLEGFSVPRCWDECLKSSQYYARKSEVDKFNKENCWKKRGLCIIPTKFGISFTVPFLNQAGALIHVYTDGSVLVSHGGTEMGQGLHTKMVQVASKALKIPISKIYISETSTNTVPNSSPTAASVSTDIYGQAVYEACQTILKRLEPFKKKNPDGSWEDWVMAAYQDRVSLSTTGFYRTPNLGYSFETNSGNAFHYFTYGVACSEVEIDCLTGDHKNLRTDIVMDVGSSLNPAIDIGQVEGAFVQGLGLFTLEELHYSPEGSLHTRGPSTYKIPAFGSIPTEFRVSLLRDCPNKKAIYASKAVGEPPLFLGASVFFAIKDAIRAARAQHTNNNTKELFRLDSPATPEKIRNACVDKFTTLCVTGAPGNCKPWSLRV", "test": "Limit of detection of xanthine and hypoxanthine, xanthine oxidase / Amplex Red assay", "from_the_text": "This assay uses xanthine oxidase to catalyze the oxidation of hypoxanthine or xanthine, to uric acid and superoxide. The superoxide spontaneously degrades to hydrogen peroxide (H2O2), which reacts stoichiometrically with Amplex® Red in the presence of horseradishperoxidase (HRP). A fluorescent product, resorufin, is generated which can be detected fluorometrically or spectrophotometrically."}, "[5]": {"test": "Biodegradation, 28 day seawater test, OECD 306", "conditions": "over 28 days"}, "[6]": {"system": "seawater bacteria", "conditions": "28 day seawater test"}, "[7]": {"test": "Heat treatment of GFP solution with added biotin", "conditions": "100° C. for 1 hour in GFP solution", "method": "The sample has high fluorescence from the GFP. This solution was treated in 2 ways (a) no treatment (b) heat treated (samples were heated to 100° C. for 1 hour in an oven)."}, "[8]": {"test": "Thermostability of xanthine and hypoxanthine", "conditions": "room temperature and 120° C., 20 h, acidic and neutral pH", "method": "These solutions were divided and the pH of one sample of each compound was adjusted to 2 with HCl. 4.5 mL of each solution was placed in a duran bottle with Teflon tape wrapped around the threads to prevent evaporation. The samples were heated at 120° C. for 20 h. The remaining solutions were kept at 25° C. Each of the samples was diluted 10-fold to 7.5 ppm before analysis."}}}
{"molecule": "O=C[C@H](O)[C@@H](O)[C@@H](O)[C@H](O)CO", "note": "[galactose]", "values": [{"measurement": "detectable concentration range", "setting": "[1]", "value": "0-30 ppm"}, {"measurement": "limit of detection", "setting": "[1]", "value": "ca. 0.3 ppm"}, {"measurement": "thermal stability", "setting": "[2]; above 100° C. (120° C.)", "value": "a drop in concentration is observed"}, {"measurement": "thermal stability", "setting": "[2]; to 100° C., water and formation water, pH 6-7 and pH 2", "value": "sufficiently stable"}]}
{"molecule": "O=C(CO)[C@@H](O)[C@H](O)[C@H](O)CO", "note": "[fructose]", "values": [{"measurement": "oxidation by galactose oxidase / interference with galactose assay", "setting": "[3]", "value": "can be oxidized by galactose oxidase"}]}
{"molecule": "O=c1[nH]c(=O)c2[nH]cnc2[nH]1", "note": "[xanthine]", "values": [{"measurement": "limit of detection", "setting": "[4]", "value": "less than 0.16 ppm"}]}
{"molecule": "O=C(O)CCCC[C@@H]1SC[C@@H]2NC(=O)N[C@@H]21", "note": "[biotin]", "values": [{"measurement": "degradation", "setting": "[5]", "value": 14, "unit": "%"}, {"measurement": "inhibition to seawater bacteria", "setting": "[6]", "value": 42, "unit": "%"}, {"measurement": "drop in fluorescence after heat and pressure", "setting": "250 nM in synthetic formation water, 150° C., 3 kbar, 15 minutes", "value": "no obvious drop in fluorescence"}, {"measurement": "loss of fluorescence due to temperature and pressure", "setting": "dilution series, increasing temperatures up to 150° C., 4 kbar, aqueous phase of produced fluids", "value": "No loss of fluorescence"}, {"measurement": "effect of heat treatment on biotin detection", "setting": "[7]", "value": "unaffected"}]}
{"molecule": "O=c1[nH]cnc2nc[nH]c12", "note": "[hypoxanthine]", "values": [{"measurement": "limit of detection", "setting": "[4]", "value": "> 0.02", "unit": "ppm"}, {"measurement": "thermal stability", "setting": "[8]", "value": "stable"}]}
